Data from ChEMBL document CHEMBL3046409, “Studies on radioprotective and antiviral activities of some bischalcone derivatives” (Med Chem Res, 2012).

Legend:
[1] = Cytotoxicity against Chlorocebus aethiops (African green monkey) Vero cells assessed as maximum non-toxic concentration after 24 hr; type: cell-based; settings: chlorocebus sabaeus, read-out: Activity
Camelpox virus = experiment: Antiviral activity against Camelpox virus infected African green monkey Vero cells assessed as reduction of viral titer after 48 hr; type: functional
Buffalopox virus = experiment: Antiviral activity against Buffalopox virus infected African green monkey Vero cells assessed as reduction of viral titer after 48 hr; type: functional

O=C1/C(=C/c2ccc(F)cc2)CC/C1=C\c1ccc(F)cc1
MNTC at 24 h [1]: 0.0833 µg/mL | inhibition (INH) (Camelpox virus): 54.29% | inhibition (INH) (Buffalopox virus): 73.69%
